In brackets after ≈: the same amount, converted by molar mass. Like-named read-outs stand apart in the source and are kept apart here.
Experiments:
[1] = Intrinsic metabolic clearance determined in human liver microsomes; assay type: in vitro ADME; details: pH 7.4
[2] = Rat i.v. and oral pharmacokinetics from literature; assay type: in vivo, rats; details: liver blood flow 80 ml/min/kg
[3] = Humans, blood/plasma ratio; ref Supplemental Table S1; cited from earlier work
[4] = Rats, fraction unbound; ref Supplemental Table S1; cited from earlier work
[5] = Rats, blood/plasma ratio; ref Supplemental Table S1; cited from earlier work
[6] = no medium marked (buffer pH 7.4); ref Supplemental Table S1; cited from earlier work
[7] = ref Supplemental Table S1, cited from earlier work; for HBD: number of hydrogen bond donors; for PSA: polar surface area; for log D: octanol/water at pH 7.4
[8] = Humans, cited from earlier work; for Urinary excretion (f e): excreted unchanged in urine, ref Supplemental Table S1; for CL: i.v.; for CL / F / Vss: ref Supplemental Table S2; for F: oral bioavailability
[9] = cited from earlier work
[10] = human, Caco-2, pH 7.4, with cyclosporine A 10 μM
Caco‐2 cells (TC7 clone) = details: Equation 11 from measured P‐Caco2
[11] = Solubility in fasted state simulated intestinal fluid; assay type: physicochemical; details: FaSSIF, 37 °C, pH 6.5, fassif, thermodynamic from solid
[12] = Humans, fraction unbound in plasma; ref Supplemental Table S1; cited from earlier work
[13] = Rats, i.v., ref Supplemental Table S2

SMILES	microsomal CLint at 1 μM [1] [µL/min/mg]	Rat blood clearance compared with liver blood flow [2]	R b [3]	f up [4]	R b [5]	Solubility (Biorelevant media or Buffer, pH 7.4) [6] [mg/ml]	HBD [7]	PSA [7]	Urinary excretion (f e) [8]	CL [8] [L/h]	F [8]	CL [9, 13] [mL/min/kg]	Papp at 2 h, 1 μM [10] [×10⁻⁶ cm/s]	Calculated P eff from P‐Caco2 (Caco‐2 cells (TC7 clone))	solubility at 24 h [11] [µg/mL]	f up [12]	log D [7]	Base pKa [7]	Vss [8] [L/kg]	F ([9]; rat, in vivo, po)	other results
Cc1nnc2n1-c1ccc(Cl)cc1C(c1ccccc1)=NC2 [Alprazolam]	< 10	exceeding maximum liver blood flow value	0.78	0.35	0.81	40	0	33.3	20 % of dose	3.11	0.96	133	38.6	4.3 10^−4 cm/s	–	–	–	–	–	–	F ([9]; Rats, oral bioavailability, ref Supplemental Table S2): 0.28
CN(C)CCCN1c2ccccc2Sc2ccc(Cl)cc21 [Chlorpromazine]	47	–	–	0.01	–	–	0	1.8	–	76.6	0.31	–	–	–	814 (≈ 2550 µM)	0.06	2.82	9.7	8.88	0.02	CL ([9]; rat, in vivo, iv): 52 mL/min/kg
CN1CCN(C2=Nc3cc(Cl)ccc3Nc3ccccc32)CC1 [Clozapine]	–	–	–	0.1	–	–	1	25.6	< 1 % of dose	13.02	–	–	28.4	3.7 10^−4 cm/s	350 (≈ 1070 µM)	0.06	2.99	–	–	–	–
CCOC(=O)C1=C(C)NC(C)=C(C(=O)OC)C1c1cccc(Cl)c1Cl (centres unmarked) [Felodipine]	–	–	0.7	0.001	0.68	–	1	68.7	< 1 % of dose	–	0.25	–	–	–	40 (≈ 104 µM)	–	4.76	–	–	0.1	Acid pKa [7]: 5.1
CCOC(=O)c1ncn2c1CN(C)C(=O)c1cc(F)ccc1-2 [Flumazenil]	39	exceeding maximum liver blood flow value	1	0.14	–	0.13	0	57.0	0.5 % of dose	72.06	–	147	–	–	–	–	0.87	–	0.97	0.28	–
COC(=O)C1=C(C)NC(C)=C(C(=O)OCCN(C)Cc2ccccc2)C1c1cccc([N+](=O)[O-])c1 (centres unmarked) [Nicardipine]	–	–	–	0.01	–	–	1	114.0	–	–	–	–	–	–	227 (≈ 473 µM)	–	–	7.3	–	0.22	–
CCOC(=O)C1=C(C)NC(C)=C(C(=O)OC)C1c1cccc([N+](=O)[O-])c1 (centres unmarked) [Nitrendipine]	–	–	1.46	–	1.46	–	1	112.9	< 1 % of dose	78.89	0.39	16.5	–	–	8 (≈ 22.2 µM)	–	3.81	–	5.39	0.12	–
CC(C)(C)NC(=O)[C@@H]1C[C@@H]2CCCC[C@@H]2CN1C[C@@H](O)[C@H](Cc1ccccc1)NC(=O)[C@H](CC(N)=O)NC(=O)c1ccc2ccccc2n1 [Saquinavir]	–	–	–	0.05	–	2.22	5	178.8	–	–	–	–	5	1.6 10^−4 cm/s	–	0.03	5.05	7.7	–	0.07	CL ([9]; rat, in vivo, iv): 88.5 mL/min/kg
Cc1ccc(O)c([C@H](CCN(C(C)C)C(C)C)c2ccccc2)c1 [Tolterodine]	115	exceeding maximum liver blood flow value	–	–	–	12	1	24.1	–	27.72	0.72	166.7	26.2	3.6 10^−4 cm/s	–	–	2.38	–	1.4	0.02	–

— publication PMC5412686 (Biopharmaceutics & Drug Disposition, 2017)
